# Experimental data taken from ChEMBL document CHEMBL1158300, “New Cephalotaxus Alkaloids from Cephalotaxus harringtonia var. drupacea” (J Nat Prod, 1996).
# Test system: P388
# Assay: Cytotoxicity against mouse P388 cells
# Format: functional, cell-based
row,SMILES,IC50 [µg/mL]
1,COC(=O)C[C@](O)(CC(C)C)C(=O)O[C@@H]1C(OC)=C[C@]23CCCN2CCc2cc4c(cc2[C@H]13)OCO4 [NORDEOXYHARRINGTONINE],0.027
2,COC(=O)C[C@](O)(CCCC(C)C)C(=O)O[C@@H]1C(OC)=C[C@]23CCCN2CCc2cc4c(cc2[C@H]13)OCO4 [HOMODEOXYHARRINGTONINE],0.056
3,COC(=O)C[C@](O)(CCCCC(C)C)C(=O)O[C@@H]1C(OC)=C[C@]23CCCN2CCc2cc4c(cc2[C@H]13)OCO4 [BISHOMODEOXYHARRINGTONINE],0.024
